Experimental data published in patent US6627621B2, “Neutrophil function inhibitors” (Dainichieseika Color & Chemicals Mfg. Co., Ltd., priority 2001, dated 2003).

Tests used:
Type in all cases: cell-based, Guinea pig
neutrophils [1] = assay: Generation of active oxygen by neutrophils (cytochrome c reduction method); details: 0.01, 0.1 and 1 mM, 37° C. 20 minutes preincubation
Procedure: A glycogen solution (0.17% glycogen-0.9% NaCl solution) was administered into the abdominal cavity of a Guinea pig. About 15 hours later, the abdominal cavity was washed with a 0.4% sodium citrate-0.9% NaCl solution to collect an exudate. The exudate contained neutrophils of 95% or higher purity. After the abdominal cavity exudate was washed twice with phosphate buffer (pH 7.4), the neutrophils were suspended in phosphate buffer (pH 7.4) to prepare a neutrophil suspension.
Inhibiting effects of a glucosamine salt on neutrophil functions were investigated with respect to the generation of active oxygen, ingesting effect and extra-cellular releasing effect on granular components by methods to be described subsequently herein. Data are each shown as a mean ± standard deviation S.D. of three or more samples. Further, a test was conducted using an AVOVA.
Glucosamine hydrochloride was added at 0.01 mM, 0.1 mM and 1 mM to aliquots of a neutrophil suspension (neutrophil concentration: 10^6 cells/mL), respectively, followed by incubation at 37° C. for 20 minutes. To each of the reaction mixtures, N-formyl-1-methionyl-1-leucyl-1-phenylalanine (FMLP; 10^−7 M) or opsonized zymosan (OPZ; count ratio of OPZ to neutrophils: 1:6) was added as an emigrating factor to stimulate neutrophils for 30 minutes. Generated active oxygen was measured by the cytochrome c reduction method. […]

neutrophils [2] = assay: Ingesting ability of neutrophils (ingestion of opsonized zymosan, ingestion index); details: 0.01, 0.1 and 1 mM, 37° C. 20 minutes preincubation; OPZ (1:6) 30 minutes; FIG. 3
Procedure: (§1) A glycogen solution (0.17% glycogen-0.9% NaCl solution) was administered into the abdominal cavity of a Guinea pig. About 15 hours later, the abdominal cavity was washed with a 0.4% sodium citrate-0.9% NaCl solution to collect an exudate. The exudate contained neutrophils of 95% or higher purity. After the abdominal cavity exudate was washed twice with phosphate buffer (pH 7.4), the neutrophils were suspended in phosphate buffer (pH 7.4) to prepare a neutrophil suspension. Inhibiting effects of a glucosamine salt on neutrophil functions were investigated with respect to the generation of active oxygen, ingesting effect and extra-cellular releasing effect on granular components by methods to be described subsequently herein. Data are each shown as a mean ± standard deviation S.D. of three or more samples. Further, a test was conducted using an AVOVA. Glucosamine hydrochloride was added at 0.01 mM, 0.1 mM and 1 mM to aliquots of a neutrophil suspension (neutrophil concentration: 10^7 cells/mL), respectively, followed by incubation at 37° C. for 20 minutes. To each of the reaction mixtures, opsonized zymosan (OPZ; count ratio of OPZ to neutrophils: 1:6) was added, followed by a reaction for 30 minutes. The count of the yeast ingested by neutrophils was determined under a microscope, and was expressed in terms of an ingestion index.

neutrophils [3] = assay: Extracellular release of granular enzyme lysozyme from neutrophils; details: 0.01, 0.1 and 1 mM, 37° C. 20 minutes preincubation; OPZ (1:6) 30 minutes; FIG. 4
Procedure: as §1, with “[…] The reaction mixture was centrifuged, the supernatant was collected, and then, the activity” for “To each”, “granular enzyme, lysozyme, released to the outside” for “reaction mixtures, opsonized zymosan (OPZ; count ratio”, “cells” for “OPZ to neutrophils: 1:6)”, “measured” for “added, followed”, “calorimetrically quantitating dissolution” for “a reaction for 30 minutes. The count”, “Micrococcus lysodeikticus cells.” for “the yeast ingested by neutrophils was determined under a microscope, and was expressed in terms of an ingestion index.”

neutrophils [4] = assay: Emigrating ability of neutrophils (Boyden's chamber, C5a as emigrating factor); details: 0.01, 0.1 and 1 mM, 37° C. 20 minutes preincubation, 3 μm membrane, FIG. 5
Procedure: A glycogen solution (0.17% glycogen-0.9% NaCl solution) was administered into the abdominal cavity of a Guinea pig. About 15 hours later, the abdominal cavity was washed with a 0.4% sodium citrate-0.9% NaCl solution to collect an exudate. The exudate contained neutrophils of 95% or higher purity. After the abdominal cavity exudate was washed twice with phosphate buffer (pH 7.4), the neutrophils were suspended in phosphate buffer (pH 7.4) to prepare a neutrophil suspension. The emigrating ability of neutrophils was measured by using as an emigrating factor the component factor C5 a generated by reacting fresh serum with a yeast. Described specifically, glucosamine hydrochloride was added at 0.01 mM, 0.1 mM and 1 mM to aliquots of a neutrophil suspension (neutrophil concentration: 3×10^6 cells/mL), respectively, followed by incubation at 37° C. for 20 minutes. The reaction mixtures were separately placed in Boyden's chambers each of which was equipped with a nitrocellulose membrane of 3 μm in pore size, and were then incubated at 37° C. for 20 minutes. After the reaction, distances over which neutrophils had emigrated were measured under a microscope.

Compound: Cl.N[C@H]1C(O)O[C@H](CO)[C@@H](O)[C@@H]1O (some centres unmarked) [glucosamine hydrochloride, Glucosamine hydrochloride]
- formation of active oxygen by FMLP (neutrophils [1]; FMLP 10^-7 M stimulation 30 minutes, FIG. 1): inhibited in a concentration-dependent manner
- formation of active oxygen by opsonized zymosan (neutrophils [1]; OPZ (1:6) stimulation 30 minutes, FIG. 2): inhibited in a concentration-dependent manner
- ingestion of opsonized zymosan by neutrophils (neutrophils [2]): inhibited in a concentration-dependent manner
- extracellular release of the granular enzyme (lysozyme) from neutrophils by opsonized zymosan (neutrophils [3]): significantly inhibited
- emigrating ability of neutrophils (neutrophils [4]): inhibited in a concentration-dependent manner
